In patent US3984482A, “2-(Dihalobenzyl)-6-nitro-4-t-butylphenol and preparation thereof” (Institut de Recherches Chimiques et Biologiques Appliquees …, priority 1967, dated 1976):
Where two headings read alike, the source gives them in different places.

How the values were obtained:
[1] = Acute toxicity per os in mice (LD 50, maximum tolerated dose); type: in vivo; details: mouse, po; for LD50: read-out: Approximate LD 50; for MTD: read-out: Approximate maximum tolerated dose
Description: The acute toxicity per os was determined in mice by the following method. Different doses of each compound were each tested on 10 mice, both male and female, weighing on average from 18 to 22 g; each dose was administered as a suspension in 10% gum arabic or olive oil and each mouse was given a uniform dose of 0.4 ml per 20 g weight of mouse with the aid of a probang.
The mice were starved for two hours before the experiment and the temperatures and behaviour of the animals were observed before the test and 11/2 and 3 hours after ingestion of the compound. After this time they were replaced in their cages and observed for several days.
The number of dead was counted daily and from this was deduced the lethal dose 50 (LD 50), the maxmum tolerated dose (MTD) and the minimum mortal dose MMD).

London staphylococcus = assay: Bacteriostatic activity in vitro by progressive dilution in culture broth, London staphylococcus; type: cell-based, Gram-positive London staphylococcus; details: conditions under which the compounds of Formula I were tested
Description: The bacteriostatic activities in vitro of the compounds of Formula I were determined by comparing them with known products, particularly of analogous series. The activity was determined with respect to the specific Gram-positive London staphylococcus as a reference strain for all the compounds.
The test was carried out in a culture broth of the following formula: […]
Indole-free bacteriological peptone
Sodium chloride 5% by weight
The method used involved progressive dilution of the principle tested. The dilutions varied by thousandths between concentrations of one thousandth and one tenth of a thousandth, and by 10 thousandths for concentrations between one tenth of a thousandth and 1/100 of a thousandth, and by hundred thousandths for concentrations between 1/100 of a thousandth and one millionth. If the product was found active at a dilution of one millionth, a new range was made from millionth to millionth to beyond one millionth.
Two dilution series were made independently and the results of the two series must be identical. The readings were carried out after 24 hours.
The figure given in the table is that of the maximum dilution at which the growth of London staphylococcus is inhibited.

Row | SMILES | LD50 ([1]; solvent olive oil) [mg/kg] | MTD ([1]; solvent olive oil) [mg/kg] | also measured
1 | CC(C)c1ccc(O)c(Cc2ccc(Cl)cc2)c1 [Example 2, 2-(4'-chlorobenzyl)-4-isopropylphenol] | 1700 | 500 | –
2 | CC(C)(C)c1ccc(O)c(Cc2ccc(Cl)cc2Cl)c1 [Example 5, 2-(2',4'-dichlorobenzyl)-4-t-butylphenol] | 1700 | 500 | –
3 | CC(C)(C)c1ccc(O)c(Cc2ccc(Cl)c(Cl)c2)c1 [Example 7, 2-(3',4'-dichlorobenzyl)-4-t-butylphenol] | 1500 | 500 | –
4 | CC(C)(C)c1cc(Cl)c(O)c(Cc2ccc(Cl)c(Cl)c2)c1 [Example 9, 2-(3',4'-dichlorobenzyl)-6-chloro-4-t-butylphenol] | > 2500 | 500 | –
5 | CCC(C)c1ccc(O)c(Cc2ccc(Cl)cc2)c1 (stereo not shown) [Example 1, 2-(4'-chlorobenzyl)-4-sec-butylphenol] | – | – | LD50 ([1]; solvent 10% gum): 1000 mg/kg; MTD ([1]; solvent 10% gum): 500 mg/kg
6 | CC(C)(C)c1ccc(O)c(Cc2ccc(Cl)cc2)c1 [Example 3, 2-(4'-chlorobenzyl)-4-t-butylphenol] | – | – | LD50 ([1]; solvent 10% gum): 1900 mg/kg
7 | CCC(C)c1ccc(O)c(Cc2ccc(Cl)c(Cl)c2)c1 (stereo not shown) [Example 8, 2-(3',4'-dichlorobenzyl)-4-s-butylphenol] | 2400 | 1000 | –
8 | Cc1ccc(O)cc1 [Para-cresol] | – | – | inhibiting dilution (London staphylococcus): 1/4000
9 | Oc1ccccc1 [Phenol] | – | – | inhibiting dilution (London staphylococcus): 1/1000
10 | CC(C)(C)c1cc(Cl)c(O)c(Cc2ccc(Cl)cc2Cl)c1 [Example 10, 2-(2',4'-dichlorobenzyl)-6-chloro-4-t-butylphenol] | 1500 | 500 | –
11 | CC(C)c1ccc(O)c(Cc2ccc(Cl)cc2Cl)c1 [Example 4, 2-(2',4'-dichlorobenzyl)-4-isopropylphenol] | 1700 | 500 | –
